Inconclusive results and toxic doses are left out. No stated cut-off is given here; in the data, active means T/C of 150% or more; inactive means T/C below 125%.
Test system: L1210 leukemia ip in BDF1 mice, survival T/C
Experiment: NCI In Vivo Anticancer Drug Screen. Data for tumor model L1210 Leukemia (intraperitoneal) in B6D2F1 (BDF1) mice
Details: endpoint: mean survival time, higher = longer survival
In short: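 Tumor was transplanted into mice, which were then dosed with test compound or vehicle alone. Survival was recorded for each group, and the treated figure was expressed relative to the control figure.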

[1] = dose: 50.0 mg/kg/injection, schedule: Q01DX009 (ip), vehicle: saline with Tween-80
[2] = dose: 100.0 mg/kg/injection, schedule: Q01DX009 (ip), vehicle: saline with Tween-80
[3] = dose: 200.0 mg/kg/injection, schedule: Q01DX009 (ip), vehicle: saline with Tween-80
[4] = dose: 100.0 mg/kg/injection, schedule: Q04DX003 (ip), vehicle: saline with Tween-80
[5] = dose: 200.0 mg/kg/injection, schedule: Q04DX003 (ip), vehicle: saline with Tween-80
[6] = dose: 100.0 mg/kg/injection, schedule: Q04DX003 (ip), vehicle: saline
[7] = dose: 200.0 mg/kg/injection, schedule: Q04DX003 (ip), vehicle: saline
[8] = dose: 100.0 mg/kg/injection, schedule: Q01DX001 (ip), vehicle: saline
[9] = dose: 200.0 mg/kg/injection, schedule: Q01DX001 (ip), vehicle: saline
[10] = dose: 400.0 mg/kg/injection, schedule: Q01DX001 (ip), vehicle: saline
[11] = dose: 50.0 mg/kg/injection, schedule: Q01DX009 (ip), vehicle: saline
[12] = dose: 100.0 mg/kg/injection, schedule: Q01DX009 (ip), vehicle: saline
[13] = dose: 200.0 mg/kg/injection, schedule: Q01DX009 (ip), vehicle: saline
[14] = dose: 400.0 mg/kg/injection, schedule: Q04DX003 (ip), vehicle: saline
[15] = dose: 400.0 mg/kg/injection, schedule: Q01DX009 (ip), vehicle: saline with Tween-80
[16] = dose: 100.0 mg/kg/injection, schedule: Q04DX003 (ip), vehicle: Klucel (hydroxypropylcellulose) (HPC)
[17] = dose: 200.0 mg/kg/injection, schedule: Q04DX003 (ip), vehicle: Klucel (hydroxypropylcellulose) (HPC)
[18] = dose: 400.0 mg/kg/injection, schedule: Q04DX003 (ip), vehicle: Klucel (hydroxypropylcellulose) (HPC)

Measured: T/C

O=C(CNC1=NCCN1)Nc1ccc(NC(=O)c2ccc(C(=O)Nc3ccc(NC(=O)CNC4=NCCN4)cc3)cc2)cc1
inactive: dose: 30.0 mg/kg/injection, schedule: Q01DX Z (ip), vehicle: water 114 % of control | dose: 40.0 mg/kg/injection, schedule: Q01DX Z (ip), vehicle: water 120 % of control | dose: 50.0 mg/kg/injection, schedule: Q01DX Z (ip), vehicle: water 121 % of control | dose: 62.5 mg/kg/injection, schedule: Q01DX Z (ip), vehicle: water 124 % of control | dose: 125.0 mg/kg/injection, schedule: Q01DX Z (ip), vehicle: water 118 % of control | dose: 250.0 mg/kg/injection, schedule: Q01DX Z (ip), vehicle: water 109 % of control | dose: 500.0 mg/kg/injection, schedule: Q01DX Z (ip), vehicle: water 106 % of control

C1CC2CCC(N3CCOCC3)C(C1)O2 (centres undefined)
inactive: [1] 102 % of control | [2] 102 % of control | [3] 102 % of control

O=S1(=O)C=CCCC=C1
inactive: dose: 50.0 mg/kg/injection, schedule: Q04DX002 (ip), vehicle: Klucel (hydroxypropylcellulose) (HPC) 105 % of control | dose: 75.0 mg/kg/injection, schedule: Q04DX002 (ip), vehicle: Klucel (hydroxypropylcellulose) (HPC) 112 % of control

Nc1nc(Cl)nc2c1ncn2Cc1ccccc1
inactive: dose: 9.5 mg/kg/injection, schedule: Q01DX001 (ip), vehicle: other 101 % of control | dose: 19.0 mg/kg/injection, schedule: Q01DX001 (ip), vehicle: other 105 % of control | dose: 38.0 mg/kg/injection, schedule: Q01DX001 (ip), vehicle: other 101 % of control | dose: 75.0 mg/kg/injection, schedule: Q01DX001 (ip), vehicle: other 119 % of control

C[N+](C)(C)/N=C1\CCc2ccccc21
inactive: [1] 100 % of control | dose: 50.0 mg/kg/injection, schedule: Q04DX003 (ip), vehicle: saline with Tween-80 110 % of control | dose: 100.0 mg/kg/injection, schedule: Q01DX001 (ip), vehicle: saline with Tween-80 97 % of control | [2] 97 % of control | [4] 98 % of control | dose: 200.0 mg/kg/injection, schedule: Q01DX001 (ip), vehicle: saline with Tween-80 100 % of control | [3] 103 % of control | [5] 91 % of control

CCCCC#CC(=O)OCCC
inactive: [4] 94 % of control | [5] 99 % of control

Cc1cc(C)[nH]c(=S)n1
inactive: dose: 100.0 mg/kg/injection, schedule: Q04DX002 (ip), vehicle: saline 101 % of control | [6] 97 % of control | dose: 200.0 mg/kg/injection, schedule: Q04DX002 (ip), vehicle: saline 101 % of control | [7] 89 % of control | dose: 400.0 mg/kg/injection, schedule: Q04DX002 (ip), vehicle: saline 94 % of control

Cc1ccc(S(=O)(=O)CCN2CCc3ccccc3C2)cc1
inactive: [8] 103 % of control | [9] 100 % of control | [10] 97 % of control

Nc1csnn1
inactive: dose: 50.0 mg/kg/injection, schedule: Q01DX001 (ip), vehicle: carboxymethylcellulose (CMC) 98 % of control | dose: 100.0 mg/kg/injection, schedule: Q01DX001 (ip), vehicle: carboxymethylcellulose (CMC) 96 % of control | dose: 200.0 mg/kg/injection, schedule: Q01DX001 (ip), vehicle: carboxymethylcellulose (CMC) 98 % of control

COc1cc(C(=O)OC(C)CN2CCOCC2)cc(OC)c1OC (centres undefined)
inactive: dose: 25.0 mg/kg/injection, schedule: Q01DX009 (ip), vehicle: saline 90 % of control | dose: 25.0 mg/kg/injection, schedule: Q04DX003 (ip), vehicle: saline 95 % of control | [11] 101 % of control | dose: 50.0 mg/kg/injection, schedule: Q04DX003 (ip), vehicle: saline 109 % of control | [12] 100 % of control | [6] 101 % of control | [13] 90 % of control | [7] 101 % of control | [14] 111 % of control

O=C(O)/C=C(\Cl)c1ccccc1
inactive: dose: 50.0 mg/kg/injection, schedule: Q01DX001 (ip), vehicle: saline 112 % of control | [8] 112 % of control | [9] 104 % of control | [10] 106 % of control

O=S(=O)(Nc1ccc(Br)cc1)c1ccccc1
inactive: [2] 99 % of control | [4] 105 % of control | [3] 87 % of control | [5] 100 % of control | [15] 95 % of control | dose: 400.0 mg/kg/injection, schedule: Q04DX003 (ip), vehicle: saline with Tween-80 98 % of control

CCCCC(/C=N\NC(=O)c1ccc[n+](C)c1)CC (centres undefined)
inactive: [11] 103 % of control | [12] 100 % of control

COc1cc(O)c([N+](=O)[O-])cc1OC
inactive: dose: 50.0 mg/kg/injection, schedule: Q04DX003 (ip), vehicle: DMSO 92 % of control | dose: 100.0 mg/kg/injection, schedule: Q04DX003 (ip), vehicle: DMSO 97 % of control | dose: 200.0 mg/kg/injection, schedule: Q04DX003 (ip), vehicle: DMSO 92 % of control

CN(C)C(=S)NN
inactive: dose: 1.56 mg/kg/injection, schedule: Q01DX009 (ip), vehicle: saline with Tween-80 111 % of control | dose: 3.12 mg/kg/injection, schedule: Q01DX009 (ip), vehicle: saline with Tween-80 117 % of control

COc1ccc(C)cc1NC(=O)Nc1ccco1
inactive: [2] 97 % of control | [3] 92 % of control | [15] 90 % of control

O=C(O)c1ccc(NC(=O)c2cccc(F)c2)cc1
inactive: dose: 100.0 mg/kg/injection, schedule: Q01DX009 (ip), vehicle: Klucel (hydroxypropylcellulose) (HPC) 100 % of control | dose: 200.0 mg/kg/injection, schedule: Q01DX009 (ip), vehicle: Klucel (hydroxypropylcellulose) (HPC) 108 % of control | dose: 400.0 mg/kg/injection, schedule: Q01DX009 (ip), vehicle: Klucel (hydroxypropylcellulose) (HPC) 101 % of control

CC(=O)C(=O)N1Cc2cc3ccccc3nc2C1
inactive: [6] 115 % of control | [7] 102 % of control | [14] 102 % of control

O=[N+]([O-])c1ccc(I)c(F)c1
inactive: [16] 100 % of control | [17] 100 % of control | [18] 104 % of control

CCOC(=O)C(C(=O)OCC)C1c2ccccc2-c2ccccc21
inactive: [16] 102 % of control | [17] 96 % of control | [18] 100 % of control

NC(=S)c1cccnc1
inactive: dose: 50.0 mg/kg/injection, schedule: Q01DX003 (ip), vehicle: Klucel (hydroxypropylcellulose) (HPC) 94 % of control | dose: 100.0 mg/kg/injection, schedule: Q01DX003 (ip), vehicle: Klucel (hydroxypropylcellulose) (HPC) 94 % of control | [16] 109 % of control | dose: 200.0 mg/kg/injection, schedule: Q01DX003 (ip), vehicle: Klucel (hydroxypropylcellulose) (HPC) 97 % of control | [17] 111 % of control | [18] 109 % of control

CSC(NC(=O)c1ccccc1)C(N)=O (centres undefined)
inactive: dose: 100.0 mg/kg/injection, schedule: Q04DX002 (ip), vehicle: Klucel (hydroxypropylcellulose) (HPC) 101 % of control | dose: 200.0 mg/kg/injection, schedule: Q04DX002 (ip), vehicle: Klucel (hydroxypropylcellulose) (HPC) 109 % of control | dose: 400.0 mg/kg/injection, schedule: Q04DX002 (ip), vehicle: Klucel (hydroxypropylcellulose) (HPC) 97 % of control

COc1ccc([N+](=O)[O-])c(C=O)c1
inactive: [12] 101 % of control | [6] 97 % of control | [13] 98 % of control | [7] 100 % of control | dose: 400.0 mg/kg/injection, schedule: Q01DX009 (ip), vehicle: saline 101 % of control | [14] 103 % of control

CC(=O)Nc1ccccc1C(=O)O
inactive: [2] 100 % of control | [3] 97 % of control | [15] 100 % of control

CCN1CCN(CC)C1(Br)C1(Br)N(CC)CCN1CC
inactive: dose: 75.0 mg/kg/injection, schedule: Q04DX002 (ip), vehicle: saline with Tween-80 91 % of control | dose: 150.0 mg/kg/injection, schedule: Q04DX002 (ip), vehicle: saline with Tween-80 91 % of control | dose: 300.0 mg/kg/injection, schedule: Q04DX002 (ip), vehicle: saline with Tween-80 98 % of control

Reference: PubChem BioAssay AID248 (DTP/NCI, 2004)
